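A five-concentration, 48-hour dose response in 96-well plates underlies each endpoint, interpolated linearly between surrounding concentrations. At the GI50, growth is halved. TGI marks complete inhibition of growth.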
Experiments:
Experiment in all cases: NCI anticancer screen, dose series, 48 h
OVCAR-4 ovarian = system: OVCAR-4 ovarian
K-562 leukemia = system: K-562 leukemia
HOP-62 NSCLC = system: HOP-62 NSCLC
MOLT-4 leukemia = system: MOLT-4 leukemia
NCI-H522 lung = system: NCI-H522 lung
SK-MEL-2 melanoma = system: SK-MEL-2 melanoma
HCT-116 colon = system: HCT-116 colon
CCRF-CEM leukemia = system: CCRF-CEM leukemia
M14 melanoma = system: M14 melanoma
OVCAR-5 ovarian = system: OVCAR-5 ovarian
A549 NSCLC = system: A549 NSCLC
TK-10 renal = system: TK-10 renal
U251 CNS = system: U251 CNS
MALME-3M melanoma = system: MALME-3M melanoma
NCI/ADR-RES ovarian = system: NCI/ADR-RES ovarian
MDA-MB-435 = system: MDA-MB-435
SW-620 colon = system: SW-620 colon
HT29 colon = system: HT29 colon
CAKI-1 renal = system: CAKI-1 renal
SF-539 CNS = system: SF-539 CNS
UO-31 renal = system: UO-31 renal
UACC-257 melanoma = system: UACC-257 melanoma
PC-3 prostate = system: PC-3 prostate
OVCAR-8 ovarian = system: OVCAR-8 ovarian
SF-295 CNS = system: SF-295 CNS
COLO 205 colon = system: COLO 205 colon
SK-MEL-28 melanoma = system: SK-MEL-28 melanoma
UACC-62 melanoma = system: UACC-62 melanoma
HCT-15 colon = system: HCT-15 colon
OVCAR-3 ovarian = system: OVCAR-3 ovarian
786-0 renal = system: 786-0 renal
BT-549 breast = system: BT-549 breast
NCI-H23 lung = system: NCI-H23 lung
LOX IMVI melanoma = system: LOX IMVI melanoma
SF-268 CNS = system: SF-268 CNS
SNB-19 CNS = system: SNB-19 CNS
MDA-MB-231 breast = system: MDA-MB-231 breast
SNB-75 CNS = system: SNB-75 CNS
NCI-H460 lung = system: NCI-H460 lung
SN12C renal = system: SN12C renal
HL-60(TB) leukemia = system: HL-60(TB) leukemia
T-47D breast = system: T-47D breast
KM12 colon = system: KM12 colon
A498 renal = system: A498 renal
IGROV1 ovarian = system: IGROV1 ovarian
HS 578T breast = system: HS 578T breast
SR leukemia = system: SR leukemia
SK-MEL-5 melanoma = system: SK-MEL-5 melanoma
EKVX NSCLC = system: EKVX NSCLC
HCC-2998 colon = system: HCC-2998 colon
RPMI-8226 leukemia = system: RPMI-8226 leukemia
DU-145 prostate = system: DU-145 prostate
RXF 393 renal = system: RXF 393 renal
HOP-92 NSCLC = system: HOP-92 NSCLC
NCI-H226 lung = system: NCI-H226 lung
SK-OV-3 ovarian = system: SK-OV-3 ovarian
MCF7 breast = system: MCF7 breast
ACHN renal = system: ACHN renal

N#Cc1c(-c2ccc(Cl)cc2)cc(-c2cc(O)ccc2O)nc1N
GI50 (OVCAR-4 ovarian): 576 nM
TGI (OVCAR-4 ovarian): 2200 nM
GI50 (K-562 leukemia): 402 nM
TGI (K-562 leukemia): > 100000 nM
GI50 (HOP-62 NSCLC): 908 nM
TGI (HOP-62 NSCLC): 3500 nM
GI50 (MOLT-4 leukemia): 666 nM
TGI (MOLT-4 leukemia): 5020 nM
GI50 (NCI-H522 lung): 606 nM
TGI (NCI-H522 lung): 2720 nM
GI50 (SK-MEL-2 melanoma): 2600 nM
TGI (SK-MEL-2 melanoma): 9160 nM
GI50 (HCT-116 colon): 553 nM
TGI (HCT-116 colon): > 34000 nM
GI50 (CCRF-CEM leukemia): 1230 nM
TGI (CCRF-CEM leukemia): > 100000 nM
GI50 (M14 melanoma): 1230 nM
TGI (M14 melanoma): 5630 nM
GI50 (OVCAR-5 ovarian): 5070 nM
TGI (OVCAR-5 ovarian): 25700 nM
GI50 (A549 NSCLC): 2330 nM
TGI (A549 NSCLC): 13800 nM
GI50 (TK-10 renal): 4080 nM
TGI (TK-10 renal): 32800 nM
GI50 (U251 CNS): 669 nM
TGI (U251 CNS): 2410 nM
GI50 (MALME-3M melanoma): 1540 nM
TGI (MALME-3M melanoma): 4270 nM
GI50 (NCI/ADR-RES ovarian): 8800 nM
TGI (NCI/ADR-RES ovarian): > 100000 nM
GI50 (MDA-MB-435): 686 nM
TGI (MDA-MB-435): 2740 nM
GI50 (SW-620 colon): 773 nM
TGI (SW-620 colon): 4680 nM
GI50 (HT29 colon): 11700 nM
TGI (HT29 colon): > 53300 nM
GI50 (CAKI-1 renal): 2980 nM
TGI (CAKI-1 renal): 19100 nM
GI50 (SF-539 CNS): 981 nM
TGI (SF-539 CNS): 3290 nM
GI50 (UO-31 renal): 5120 nM
TGI (UO-31 renal): 23600 nM
GI50 (UACC-257 melanoma): 1830 nM
TGI (UACC-257 melanoma): 7440 nM
GI50 (PC-3 prostate): 1480 nM
TGI (PC-3 prostate): > 33900 nM
GI50 (OVCAR-8 ovarian): 1370 nM
TGI (OVCAR-8 ovarian): 4930 nM
GI50 (SF-295 CNS): 2940 nM
TGI (SF-295 CNS): 9770 nM
GI50 (COLO 205 colon): 22400 nM
TGI (COLO 205 colon): > 100000 nM
GI50 (SK-MEL-28 melanoma): 1760 nM
TGI (SK-MEL-28 melanoma): 4230 nM
GI50 (UACC-62 melanoma): 1450 nM
TGI (UACC-62 melanoma): 3990 nM
GI50 (HCT-15 colon): 4740 nM
TGI (HCT-15 colon): > 52800 nM
GI50 (OVCAR-3 ovarian): 472 nM
TGI (OVCAR-3 ovarian): 1510 nM
GI50 (786-0 renal): 2060 nM
TGI (786-0 renal): 6490 nM
GI50 (BT-549 breast): 3410 nM
TGI (BT-549 breast): 31200 nM
GI50 (NCI-H23 lung): 1220 nM
TGI (NCI-H23 lung): 5280 nM
GI50 (LOX IMVI melanoma): 558 nM
TGI (LOX IMVI melanoma): 1890 nM
GI50 (SF-268 CNS): 825 nM
TGI (SF-268 CNS): 7150 nM
GI50 (SNB-19 CNS): 1290 nM
TGI (SNB-19 CNS): > 45300 nM
GI50 (MDA-MB-231 breast): 1250 nM
TGI (MDA-MB-231 breast): 5090 nM
GI50 (SNB-75 CNS): 914 nM
TGI (SNB-75 CNS): 4040 nM
GI50 (NCI-H460 lung): 935 nM
TGI (NCI-H460 lung): 4870 nM
GI50 (SN12C renal): 1170 nM
TGI (SN12C renal): 5630 nM
GI50 (HL-60(TB) leukemia): 7640 nM
TGI (HL-60(TB) leukemia): > 87900 nM
GI50 (T-47D breast): 854 nM
TGI (T-47D breast): 5640 nM
GI50 (KM12 colon): 2000 nM
TGI (KM12 colon): 14900 nM
GI50 (A498 renal): 1410 nM
TGI (A498 renal): 6140 nM
GI50 (IGROV1 ovarian): 1240 nM
TGI (IGROV1 ovarian): 4770 nM
GI50 (HS 578T breast): 1730 nM
TGI (HS 578T breast): > 100000 nM
GI50 (SR leukemia): 605 nM
TGI (SR leukemia): > 100000 nM
GI50 (SK-MEL-5 melanoma): 853 nM
TGI (SK-MEL-5 melanoma): 2400 nM
GI50 (EKVX NSCLC): 2770 nM
TGI (EKVX NSCLC): > 62900 nM
GI50 (HCC-2998 colon): 1170 nM
TGI (HCC-2998 colon): 3460 nM
GI50 (RPMI-8226 leukemia): 3200 nM
TGI (RPMI-8226 leukemia): > 100000 nM
GI50 (DU-145 prostate): 1250 nM
TGI (DU-145 prostate): 10500 nM
GI50 (RXF 393 renal): 835 nM
TGI (RXF 393 renal): 2720 nM
GI50 (HOP-92 NSCLC): 2390 nM
TGI (HOP-92 NSCLC): 10800 nM
GI50 (NCI-H226 lung): 2540 nM
TGI (NCI-H226 lung): 9870 nM
GI50 (SK-OV-3 ovarian): 2420 nM
TGI (SK-OV-3 ovarian): 6340 nM
GI50 (MCF7 breast): 566 nM
TGI (MCF7 breast): > 32800 nM
GI50 (ACHN renal): 1890 nM
TGI (ACHN renal): 12200 nM
